From US20070117770A1, “Human ribosomal DNA (rDNA) and ribosomal RNA (rRNA) nucleic acids and uses thereof” (Cylene Pharmaceuticals, Inc., priority 2005, published 2007)

Key:
Assay in all cases: Protein kinase inhibition assay
Assay type in all cases: biochemical
PKBβ(h) = PKBβ(h) (Homo sapiens, UniProt P31751); conditions: read-out: percent residual activity of PKBβ(h)
Protocol: (§1) Certain compounds were tested for activity in protein kinase inhibition assays. All substrates were dissolved and diluted to working stocks in de-ionized water, apart from histone H1 (10× working stock in 20 mM MOPS pH 7.0), PDKtide (10× working stock in 50 mM Tris pH 7.0) ATF2 (which is typically stored at a 20× working stock in 50 mM Tris pH 7.5, 150 mM NaCl, 0.1 mM EGTA, 0.03% Brij-35, 50% glycerol, 1 mM benzamidine, 0.2 mM PMSF and 0.1% R-mercaptoethanol), KKLNRTLSFAEPG (SEQ ID NO:203) and RRRLSFAEPG (SEQ ID NO:204) (50 mM HEPES pH 7.4) and GGEEEEYFELVKKKK (SEQ ID NO:205) (20 mM MOPS pH 7.0). All kinases were pre-diluted to a 10× working concentration prior to addition into the assay. The composition of the dilution buffer for each kinase is detailed below.
(§2) In a final reaction volume of 25 μl, PKBβ (h) (5-10 mU) is incubated with 8 mM MOPS pH 7.0, 0.2 mM EDTA, 30 μM GRPRTSSFAEGKK (SEQ ID NO:232), 10 mM MgAcetate and [gamma-33P-ATP] (specific activity approx. 500 cpm/pmol, concentration as required). The reaction is initiated by the addition of the MgATP mix. After incubation for 40 minutes at room temperature, the reaction is stopped by the addition of 5 μl of a 3% phosphoric acid solution. 10 μl of the reaction is then spotted onto a P30 filtermat and washed three times for 5 minutes in 75 mM phosphoric acid and once in methanol prior to drying and scintillation counting.

Pyk2(h) = Pyk2(h) (Homo sapiens, UniProt Q14289); conditions: read-out: percent residual activity of Pyk2(h)
Chain of Pyk2(h) (Q14289 whole entry): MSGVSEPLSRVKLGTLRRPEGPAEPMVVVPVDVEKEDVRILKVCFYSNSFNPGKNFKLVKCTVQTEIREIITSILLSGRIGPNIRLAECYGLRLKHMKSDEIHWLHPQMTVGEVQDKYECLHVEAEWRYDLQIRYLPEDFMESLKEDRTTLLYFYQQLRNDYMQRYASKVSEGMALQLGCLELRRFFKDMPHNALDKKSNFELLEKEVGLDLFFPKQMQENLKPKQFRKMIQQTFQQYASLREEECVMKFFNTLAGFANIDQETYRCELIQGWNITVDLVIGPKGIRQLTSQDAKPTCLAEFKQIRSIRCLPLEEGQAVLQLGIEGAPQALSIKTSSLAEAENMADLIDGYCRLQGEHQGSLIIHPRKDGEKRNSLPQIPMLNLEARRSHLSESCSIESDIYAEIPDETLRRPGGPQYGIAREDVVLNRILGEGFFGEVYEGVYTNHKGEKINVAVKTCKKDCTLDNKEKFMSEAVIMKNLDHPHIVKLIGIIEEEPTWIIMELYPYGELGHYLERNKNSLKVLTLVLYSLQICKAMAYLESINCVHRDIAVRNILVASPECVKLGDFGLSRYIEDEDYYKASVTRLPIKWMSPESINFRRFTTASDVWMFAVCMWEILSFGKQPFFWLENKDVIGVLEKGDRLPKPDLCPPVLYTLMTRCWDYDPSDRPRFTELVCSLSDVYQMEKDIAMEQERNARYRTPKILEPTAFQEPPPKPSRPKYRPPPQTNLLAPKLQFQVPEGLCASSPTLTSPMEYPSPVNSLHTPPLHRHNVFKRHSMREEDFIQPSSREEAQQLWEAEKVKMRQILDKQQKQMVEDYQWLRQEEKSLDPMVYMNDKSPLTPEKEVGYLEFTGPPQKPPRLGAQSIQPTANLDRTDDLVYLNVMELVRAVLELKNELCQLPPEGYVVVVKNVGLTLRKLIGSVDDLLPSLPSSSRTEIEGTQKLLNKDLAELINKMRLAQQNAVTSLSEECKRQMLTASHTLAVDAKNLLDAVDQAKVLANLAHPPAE
Protocol: as §1
as §2, with “Pyk2” for “PKBβ”, “0.1 mg/ml poly(Glu, Tyr) 4:1,” for “30 μM GRPRTSSFAEGKK (SEQ ID NO:232),”, “Filtermat A” for “P30 filtermat”

EphB2(h) = EphB2(h) (Homo sapiens, UniProt P29323); conditions: read-out: percent residual activity of EphB2(h)
Chain of EphB2(h) (P29323 19-1055): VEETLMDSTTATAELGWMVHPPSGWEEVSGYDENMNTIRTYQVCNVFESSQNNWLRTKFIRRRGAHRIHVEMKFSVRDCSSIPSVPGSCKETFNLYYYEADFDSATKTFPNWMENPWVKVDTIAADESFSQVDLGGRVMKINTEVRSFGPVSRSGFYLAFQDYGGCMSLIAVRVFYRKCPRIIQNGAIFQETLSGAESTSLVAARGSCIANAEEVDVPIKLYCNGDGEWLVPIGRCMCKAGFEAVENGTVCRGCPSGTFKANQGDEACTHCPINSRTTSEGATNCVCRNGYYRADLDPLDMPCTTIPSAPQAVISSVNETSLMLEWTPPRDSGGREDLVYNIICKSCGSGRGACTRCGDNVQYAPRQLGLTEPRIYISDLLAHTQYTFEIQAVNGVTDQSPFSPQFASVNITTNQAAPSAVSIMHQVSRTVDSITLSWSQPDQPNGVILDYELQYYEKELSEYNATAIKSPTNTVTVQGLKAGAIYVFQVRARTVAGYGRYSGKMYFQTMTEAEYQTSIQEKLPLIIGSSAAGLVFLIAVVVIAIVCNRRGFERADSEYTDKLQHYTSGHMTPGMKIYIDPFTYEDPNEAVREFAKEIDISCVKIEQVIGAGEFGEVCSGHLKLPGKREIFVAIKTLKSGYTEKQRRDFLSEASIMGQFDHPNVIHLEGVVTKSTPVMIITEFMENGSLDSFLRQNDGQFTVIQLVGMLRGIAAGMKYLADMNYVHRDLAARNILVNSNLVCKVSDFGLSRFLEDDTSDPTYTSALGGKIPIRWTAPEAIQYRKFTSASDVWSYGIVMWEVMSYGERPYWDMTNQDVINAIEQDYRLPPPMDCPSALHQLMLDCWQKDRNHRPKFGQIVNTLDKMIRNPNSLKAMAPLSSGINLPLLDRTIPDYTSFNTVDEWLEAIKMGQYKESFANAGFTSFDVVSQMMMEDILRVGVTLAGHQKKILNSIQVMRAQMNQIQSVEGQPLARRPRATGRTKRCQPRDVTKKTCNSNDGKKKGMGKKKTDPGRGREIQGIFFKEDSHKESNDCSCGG
Protocol: as §1
as §2, with “EphB2” for “PKBβ”, “10 mM MnCl2, 0.1 mg/ml poly(Glu, Tyr) 4:1,” for “30 μM GRPRTSSFAEGKK (SEQ ID NO:232),”, “Filtermat A” for “P30 filtermat”

MINK(h) = MINK(h) (Homo sapiens, UniProt Q8N4C8); conditions: read-out: percent residual activity of MINK(h)
Chain of MINK(h) (Q8N4C8 whole entry): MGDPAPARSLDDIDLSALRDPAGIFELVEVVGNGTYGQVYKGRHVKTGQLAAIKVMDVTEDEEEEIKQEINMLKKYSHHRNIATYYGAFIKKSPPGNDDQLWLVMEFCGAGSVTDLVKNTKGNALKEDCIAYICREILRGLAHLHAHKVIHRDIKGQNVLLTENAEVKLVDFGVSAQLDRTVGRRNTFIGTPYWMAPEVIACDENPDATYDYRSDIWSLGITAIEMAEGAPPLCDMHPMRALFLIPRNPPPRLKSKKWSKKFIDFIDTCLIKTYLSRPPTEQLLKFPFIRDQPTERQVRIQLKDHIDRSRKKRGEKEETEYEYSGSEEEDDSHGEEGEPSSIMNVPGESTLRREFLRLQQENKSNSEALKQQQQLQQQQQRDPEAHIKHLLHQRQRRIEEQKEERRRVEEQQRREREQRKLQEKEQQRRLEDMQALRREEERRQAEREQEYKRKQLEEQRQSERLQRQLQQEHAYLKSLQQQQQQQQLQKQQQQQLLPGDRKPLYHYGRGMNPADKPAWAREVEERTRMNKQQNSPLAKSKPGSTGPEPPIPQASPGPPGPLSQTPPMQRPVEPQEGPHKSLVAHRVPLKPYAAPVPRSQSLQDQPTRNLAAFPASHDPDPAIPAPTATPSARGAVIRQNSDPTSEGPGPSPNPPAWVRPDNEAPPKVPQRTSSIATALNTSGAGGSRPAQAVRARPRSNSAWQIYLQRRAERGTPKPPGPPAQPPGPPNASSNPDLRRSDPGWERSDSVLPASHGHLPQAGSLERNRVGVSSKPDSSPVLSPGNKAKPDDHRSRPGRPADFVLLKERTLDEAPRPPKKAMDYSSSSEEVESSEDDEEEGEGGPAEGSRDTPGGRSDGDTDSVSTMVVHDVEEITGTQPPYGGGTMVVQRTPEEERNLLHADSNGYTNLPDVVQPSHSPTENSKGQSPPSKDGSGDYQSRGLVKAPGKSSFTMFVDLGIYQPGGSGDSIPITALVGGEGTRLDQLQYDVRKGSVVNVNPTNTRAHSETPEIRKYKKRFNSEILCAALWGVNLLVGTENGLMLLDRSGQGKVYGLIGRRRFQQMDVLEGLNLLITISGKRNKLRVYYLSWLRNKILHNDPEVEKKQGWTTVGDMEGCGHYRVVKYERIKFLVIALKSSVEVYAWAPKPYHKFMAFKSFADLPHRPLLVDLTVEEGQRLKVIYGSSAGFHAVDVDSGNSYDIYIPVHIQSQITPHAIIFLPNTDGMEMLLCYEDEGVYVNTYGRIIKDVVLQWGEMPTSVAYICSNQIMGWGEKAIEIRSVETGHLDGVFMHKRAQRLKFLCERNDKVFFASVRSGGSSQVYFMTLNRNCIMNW
Protocol: as §1
as §2, with “MINK” for “PKBβ”, “0.33 mg/ml myelin basic protein,” for “30 μM GRPRTSSFAEGKK (SEQ ID NO:232),”

JNK1α1(h) = JNK1α1(h) (Homo sapiens, UniProt P45983); conditions: read-out: percent residual activity of JNK1α1(h)
Chain of JNK1α1(h) (P45983 1-384 isoform P45983-2): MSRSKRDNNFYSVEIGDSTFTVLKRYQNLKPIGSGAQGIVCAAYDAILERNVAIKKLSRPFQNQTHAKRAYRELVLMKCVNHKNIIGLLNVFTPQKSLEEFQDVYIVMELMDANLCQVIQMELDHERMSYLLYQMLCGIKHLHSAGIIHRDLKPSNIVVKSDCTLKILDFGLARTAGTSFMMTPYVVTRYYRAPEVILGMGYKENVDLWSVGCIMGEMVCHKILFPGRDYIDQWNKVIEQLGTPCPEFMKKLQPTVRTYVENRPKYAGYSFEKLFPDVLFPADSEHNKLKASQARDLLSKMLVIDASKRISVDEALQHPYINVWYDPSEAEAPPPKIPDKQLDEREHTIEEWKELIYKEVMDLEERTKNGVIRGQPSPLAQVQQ
Protocol: as §1
as §2, with “JNK1α” for “PKBβ”, “50” for “8”, “Tris” for “MOPS”, “7.5, 0.1” for “7.0, 0.2”, “EGTA, 0.1% R-mercaptoethanol, 3” for “EDTA, 30”, “ATF2,” for “GRPRTSSFAEGKK (SEQ ID NO:232),”

CDK2/cyclinA(h) = CDK2/cyclinA(h) (Homo sapiens, UniProt P24941); conditions: read-out: percent residual activity of CDK2/cyclinA(h)
Protocol: as §1
as §2, with “CDK2/cyclinA” for “PKBβ”, “0.1 mg/ml histone H1,” for “30 μM GRPRTSSFAEGKK (SEQ ID NO:232),”

Chain of PKBβ(h) (P31751 whole entry): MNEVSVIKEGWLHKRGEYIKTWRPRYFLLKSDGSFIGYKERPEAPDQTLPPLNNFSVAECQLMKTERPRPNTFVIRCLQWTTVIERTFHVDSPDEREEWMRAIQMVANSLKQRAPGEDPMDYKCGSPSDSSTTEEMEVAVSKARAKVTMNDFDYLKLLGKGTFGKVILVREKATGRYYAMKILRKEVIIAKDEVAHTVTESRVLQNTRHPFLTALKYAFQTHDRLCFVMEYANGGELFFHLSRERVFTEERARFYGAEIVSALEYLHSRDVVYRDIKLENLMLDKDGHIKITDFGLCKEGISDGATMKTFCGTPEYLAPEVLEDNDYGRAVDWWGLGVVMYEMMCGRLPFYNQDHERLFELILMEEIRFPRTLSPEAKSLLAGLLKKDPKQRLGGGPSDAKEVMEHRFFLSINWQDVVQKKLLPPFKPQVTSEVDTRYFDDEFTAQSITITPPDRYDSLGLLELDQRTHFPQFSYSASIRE

| remaining activity at 2.5 µM (PKBβ(h)) [%] | remaining activity at 2.5 µM (Pyk2(h)) [%] | remaining activity at 2.5 µM (EphB2(h)) [%] | remaining activity at 2.5 µM (MINK(h)) [%] | remaining activity at 2.5 µM (JNK1α1(h)) [%] | remaining activity at 2.5 µM (CDK2/cyclinA(h)) [%] | SMILES |
| --- | --- | --- | --- | --- | --- | --- |
| 48 | 95 | 96 | 72 | 94 | 86 | CN1CCCC1CCNC(=O)c1cn2c3c(c(N4CCC(c5cnccn5)C4)c(F)cc3c1=O)Oc1cc3ccccc3cc1-2 (stereo not drawn) [Compound A-1] |
| 106 | 105 | 106 | 97 | 100 | 94 | CC(=O)N1CCN(c2ccc3c(=O)c(C(=O)NCCN4CCCC4)c4n(C)c5ccccc5n4c3n2)CC1 [Compound B-1] |
